According to patent publication EP0355234A1, “Pyrazolopyridine derivatives as antiatherosclerotic and antihypercholesterolemic agents” (MERRELL DOW PHARMACEUTICALS INC., priority 1988, dated 1990):
Where a name gives a salt, the structure may show the parent alone.

System: Hypercholesterolemic Rabbit
Experiment: Antiatherosclerotic and antihypercholesterolemic effects in the hypercholesterolemic (2% cholesterol diet) rabbit, six weeks of treatment
Type: in vivo, New Zealand white male rabbits
Conditions: mean ± standard deviation; for % of thoracic arota covered by plaque / Aortic arch cholesterol: 6 weeks treatment; for % of thoracic arota covered by plaque: Sudan Black stain, cut-weight planimetry, positive control Group 2: 70.57±9.54; for Aortic arch cholesterol: positive control Group 2: 15.82±4.64; for Serum Cholesterol: after 6 wks treatment, positive control Group 2: 2475±434
Experimental: Four groups of New Zealand white male rabbits (weighing 1-2 kg) were treated for six weeks according to the following treatment schedule [all injections were in volumes corresponding to 0.1 ml/kg subcutaneously (s.c.)]: • Group 1 maintained on normal rabbit chow; received polyethylene glycol 300 (PEG ) injection twice daily. • Group 2 (Positive Control) maintained on rabbit chow containing 2% by weight cholesterol; received PEG injection twice daily. • Group 3 maintained on rabbit chow containing 2% by weight cholesterol; received 4,7-dihydro-1,6-dimethyl-4-(2-methylphenyl)-3-(2-methylpropyl)-1H-pyrozolo[3,4-b]pyridine-5-carboxylic acid methyl ester monohydrochloride (compound 1A) at a dose of 1 mg/kg in PEG twice daily. • Group 4 maintained on rabbit chow containing 2% by weight cholesterol; received compound 1A at a dose of 10 mg/kg in PEG twice daily.
The body weight of each rabbit was measured weekly. At three week and six week intervals after the start of treatment, blood samples were obtained from each rabbit and determinations of platelet aggregation, serum cholesterol, triglycerides, electrolyte concentrations and hematological parameters were performed.
Six weeks after the start of treatment, the animals were sacrificed. Aortic arches and thoracic aortas were removed and were dissected free of extraneous tissues. The aortic arches were weighed, homogenized in isopropanol, and determinations of cholesterol, triglycerides and electrolyte concentrations were performed. Thoracic aortas were slit down the ventral surface and stained for lipoproteins and lipids by immersion for 5 min in Sudan Black according to the method of Gradwohl (Gradwohl's Clinical Laboratory Methods and Diagnosis (1980) Vol. 1, Edition 8, Chapter 25, pg 771; Sonnenwerth and Jarett, editors, The C.V. Mosby Company, St. Louis, Toronto, London). The percentage of luminal surface covered by atherosclerotic plaque was assessed by "cut-weight" planimetry of the projected image according to the method of Willis et al. (Arteriosclerosis 5, 250 (1985)) whereby the photographic image was projected at a magnification of 7 to 10 and the outer border of the tissue and the boundary between plaque and uninvolved tissue were traced and the appropriate areas were cut out and weighed.

[1] = Group 3: 1 mg/kg bid s.c. in PEG
[2] = Group 4: 10 mg/kg bid s.c. in PEG

SMILES: COC(=O)C1=C(C)Nc2c(c(CC(C)C)nn2C)C1c1ccccc1C (stereo not drawn) [Compound 1A, 4,7-dihydro-1,6-dimethyl-4-(2-methylphenyl)-3-(2-methylpropyl)-1H-pyrozolo[3,4-b]pyridine-5-carboxylic acid methyl ester monohydrochloride]
- % of thoracic arota covered by plaque [1]: 34.33±19.03 %
- Aortic arch cholesterol [1]: 9.57±1.38 µg/mg wet wt.
- Serum Cholesterol [1]: 1919 ± 345 mg/dL
- % of thoracic arota covered by plaque [2]: 36.71±9.95 %
- Aortic arch cholesterol [2]: 9.27±1.91 µg/mg wet wt.
- Serum Cholesterol [2]: 1774 ± 300 mg/dL
